In ChEMBL document CHEMBL1146687, “Novel semi-synthetic nocathiacin antibiotics: synthesis and antibacterial activity of bis- and mono-O-alkylated derivatives” (Bioorg Med Chem Lett, 2004):
In brackets after ≈: the same amount, converted by molar mass.

What was measured:
Enterococcus faecalis [1] = experiment: In vitro antibacterial activity against Enterococcus faecalis; type: functional
Staphylococcus aureus [2] = experiment: In vivo efficacy;(sc) tested for protection against staphylococcus infections in mice; type: functional; details: read-out: PD50
Staphylococcus aureus [3] = experiment: In vitro antibacterial activity against Staphylococcus aureus; type: functional
Streptococcus pneumoniae [4] = experiment: In vitro antibacterial activity against Streptococcus pneumoniae; type: functional
[5] = Aqueous solubility at neutral pH; type: physicochemical
Enterococcus faecalis [6] = experiment: In vitro antibacterial activity against Enterococcus faecalis; 0.06-0.125; type: functional
Staphylococcus aureus [7] = experiment: In vitro antibacterial activity against […]; 0.125-0.25; type: functional
Streptococcus pneumoniae [8] = experiment: In vitro antibacterial activity against Streptococcus pneumoniae; 0.003-0.015; type: functional

Row | Compound | MIC (Enterococcus faecalis [1]) | ED50 (Staphylococcus aureus [2]) | MIC (Staphylococcus aureus [3]) | MIC (Streptococcus pneumoniae [4]) | solubility [5] | MIC (Enterococcus faecalis [6]) | MIC (Staphylococcus aureus [7]) | MIC (Streptococcus pneumoniae [8])
1 | C=C(NC(=O)c1csc(-c2nc3c(cc2OC)-c2nc(cs2)C(=O)N[C@@H]([C@@H](C)O)C(=O)N/C(=C(\C)OC)c2nc(cs2)C(=O)N[C@@H]2c4nc(cs4)C(=O)N[C@@H](COC(=O)c4c5c6c(cccc6n4O)COC(=O)[C@@H](O[C@H]4C[C@](C)(O)[C@H](N(C)C)[C@H](C)O4)[C@H]2OC5)c2nc-3cs2)n1)C(N)=O | 0.015 µg/mL (≈ 0.0103 µM) | > 10 mg/kg | 0.015 µg/mL (≈ 0.0103 µM) | 0.003 µg/mL (≈ 0.00207 µM) | – | – | – | –
2 | C=C(NC(=O)c1csc(-c2nc3c(cc2OCOP(=O)(O)O)-c2nc(cs2)C(=O)N[C@@H]([C@@H](C)O)C(=O)N/C(=C(\C)OC)c2nc(cs2)C(=O)N[C@@H]2c4nc(cs4)C(=O)N[C@@H](COC(=O)c4c5c6c(cccc6n4OCOP(=O)(O)O)COC(=O)[C@@H](O[C@H]4C[C@](C)(O)[C@H](N(C)C)[C@H](C)O4)[C@H]2OC5)c2nc-3cs2)n1)C(N)=O | 0.25 µg/mL (≈ 0.151 µM) | 0.15 mg/kg | 0.125 µg/mL (≈ 0.0754 µM) | 0.015 µg/mL (≈ 0.00905 µM) | > 2000 µg/mL | – | – | –
3 | C=C(NC(=O)c1csc(-c2nc3c(cc2OCCCS(=O)(=O)O)-c2nc(cs2)C(=O)N[C@@H]([C@@H](C)O)C(=O)N/C(=C(\C)OC)c2nc(cs2)C(=O)N[C@@H]2c4nc(cs4)C(=O)N[C@@H](COC(=O)c4c5c6c(cccc6n4OCCCS(=O)(=O)O)COC(=O)[C@@H](O[C@H]4C[C@](C)(O)[C@H](N(C)C)[C@H](C)O4)[C@H]2OC5)c2nc-3cs2)n1)C(N)=O | 128 µg/mL (≈ 76.1 µM) | – | > 128 µg/mL | 0.5 µg/mL (≈ 0.297 µM) | > 2000 µg/mL | – | – | –
4 | C=C(NC(=O)c1csc(-c2nc3c(cc2OCCN2CCOCC2)-c2nc(cs2)C(=O)N[C@@H]([C@@H](C)O)C(=O)N/C(=C(\C)OC)c2nc(cs2)C(=O)N[C@@H]2c4nc(cs4)C(=O)N[C@@H](COC(=O)c4c5c6c(cccc6n4OCCN4CCOCC4)COC(=O)[C@@H](O[C@H]4C[C@](C)(O)[C@H](N(C)C)[C@H](C)O4)[C@H]2OC5)c2nc-3cs2)n1)C(N)=O | 0.25 µg/mL (≈ 0.15 µM) | > 10 mg/kg | 1 µg/mL (≈ 0.601 µM) | 0.03 µg/mL (≈ 0.018 µM) | – | – | – | –
5 | C=C(NC(=O)c1csc(-c2nc3c(cc2O)-c2nc(cs2)C(=O)N[C@@H]([C@@H](C)O)C(=O)N/C(=C(\C)OC)c2nc(cs2)C(=O)N[C@@H]2c4nc(cs4)C(=O)N[C@@H](COC(=O)c4c5c6c(cccc6n4OCCN4CCOCC4)COC(=O)[C@@H](O[C@H]4C[C@](C)(O)[C@H](N(C)C)[C@H](C)O4)[C@H]2OC5)c2nc-3cs2)n1)C(N)=O | – | 3.4 mg/kg | – | – | – | < 0.125 µg/mL | < 0.25 µg/mL | < 0.015 µg/mL
6 | C=C(NC(=O)c1csc(-c2nc3c(cc2O)-c2nc(cs2)C(=O)N[C@@H]([C@@H](C)O)C(=O)N/C(=C(\C)OC)c2nc(cs2)C(=O)N[C@@H]2c4nc(cs4)C(=O)N[C@@H](COC(=O)c4c5c6c(cccc6n4OCCCN)COC(=O)[C@@H](O[C@H]4C[C@](C)(O)[C@H](N(C)C)[C@H](C)O4)[C@H]2OC5)c2nc-3cs2)n1)C(N)=O | 1 µg/mL (≈ 0.669 µM) | > 10 mg/kg | 0.25 µg/mL (≈ 0.167 µM) | 0.06 µg/mL (≈ 0.0401 µM) | – | – | – | –
7 | C=C(NC(=O)c1csc(-c2nc3c(cc2O)-c2nc(cs2)C(=O)N[C@@H]([C@@H](C)O)C(=O)N/C(=C(\C)OC)c2nc(cs2)C(=O)N[C@@H]2c4nc(cs4)C(=O)N[C@@H](COC(=O)c4c5c6c(cccc6n4OCCOCCOCCOCCOCCOCO)COC(=O)[C@@H](O[C@H]4C[C@](C)(O)[C@H](N(C)C)[C@H](C)O4)[C@H]2OC5)c2nc-3cs2)n1)C(N)=O | 0.5 µg/mL (≈ 0.296 µM) | > 10 mg/kg | 0.125 µg/mL (≈ 0.0741 µM) | 0.007 µg/mL (≈ 0.00415 µM) | – | – | – | –
8 | C=C(NC(=O)c1csc(-c2nc3c(cc2O)-c2nc(cs2)C(=O)N[C@@H]([C@@H](C)O)C(=O)N/C(=C(\C)OC)c2nc(cs2)C(=O)N[C@@H]2c4nc(cs4)C(=O)N[C@@H](COC(=O)c4c5c6c(cccc6n4OC)COC(=O)[C@@H](O[C@H]4C[C@](C)(O)[C@H](N(C)C)[C@H](C)O4)[C@H]2OC5)c2nc-3cs2)n1)C(N)=O | 0.125 µg/mL (≈ 0.0861 µM) | < 0.62 mg/kg | 0.03 µg/mL (≈ 0.0207 µM) | 0.003 µg/mL (≈ 0.00207 µM) | – | – | – | –
9 | C=C(NC(=O)c1csc(-c2nc3c(cc2O)-c2nc(cs2)C(=O)N[C@@H]([C@@H](C)O)C(=O)N/C(=C(\C)OC)c2nc(cs2)C(=O)N[C@@H]2c4nc(cs4)C(=O)N[C@@H](COC(=O)c4c5c6c(cccc6n4OCCCOC4O[C@H](CO)[C@@H](O)[C@H](O)[C@H]4O)COC(=O)[C@@H](O[C@H]4C[C@](C)(O)[C@H](N(C)C)[C@H](C)O4)[C@H]2OC5)c2nc-3cs2)n1)C(N)=O (stereo not given in full) | > 128 µg/mL | > 10 mg/kg | 16 µg/mL (≈ 9.65 µM) | 0.06 µg/mL (≈ 0.0362 µM) | – | – | – | –
10 | C=C(NC(=O)c1csc(-c2nc3c(cc2O)-c2nc(cs2)C(=O)N[C@@H]([C@@H](C)O)C(=O)N/C(=C(\C)OC)c2nc(cs2)C(=O)N[C@@H]2c4nc(cs4)C(=O)N[C@@H](COC(=O)c4c5c6c(cccc6n4OCP(=O)(OCC)OCC)COC(=O)[C@@H](O[C@H]4C[C@](C)(O)[C@H](N(C)C)[C@H](C)O4)[C@H]2OC5)c2nc-3cs2)n1)C(N)=O | 0.03 µg/mL (≈ 0.0189 µM) | 1.6 mg/kg | 0.015 µg/mL (≈ 0.00945 µM) | 0.001 µg/mL (≈ 0.00063 µM) | – | – | – | –
11 | C=C(NC(=O)c1csc(-c2nc3c(cc2O)-c2nc(cs2)C(=O)N[C@@H]([C@@H](C)O)C(=O)N/C(=C(\C)OC)c2nc(cs2)C(=O)N[C@@H]2c4nc(cs4)C(=O)N[C@@H](COC(=O)c4c5c6c(cccc6n4OCCCN4CCN(C)CC4)COC(=O)[C@@H](O[C@H]4C[C@](C)(O)[C@H](N(C)C)[C@H](C)O4)[C@H]2OC5)c2nc-3cs2)n1)C(N)=O | 1 µg/mL (≈ 0.634 µM) | 8.7 mg/kg | 1 µg/mL (≈ 0.634 µM) | 0.03 µg/mL (≈ 0.019 µM) | – | – | – | –
12 | C=C(NC(=O)c1csc(-c2nc3c(cc2OCCCS(=O)(=O)O)-c2nc(cs2)C(=O)N[C@@H]([C@@H](C)O)C(=O)N/C(=C(\C)OC)c2nc(cs2)C(=O)N[C@@H]2c4nc(cs4)C(=O)N[C@@H](COC(=O)c4c5c6c(cccc6n4O)COC(=O)[C@@H](O[C@H]4C[C@](C)(O)[C@H](N(C)C)[C@H](C)O4)[C@H]2OC5)c2nc-3cs2)n1)C(N)=O | 32 µg/mL (≈ 20.5 µM) | > 10 mg/kg | 2 µg/mL (≈ 1.28 µM) | 0.25 µg/mL (≈ 0.16 µM) | – | – | – | –
13 | C=C(NC(=O)c1csc(-c2nc3c(cc2OCC(=O)N(C)C)-c2nc(cs2)C(=O)N[C@@H]([C@@H](C)O)C(=O)N/C(=C(\C)OC)c2nc(cs2)C(=O)N[C@@H]2c4nc(cs4)C(=O)N[C@@H](COC(=O)c4c5c6c(cccc6n4OCC(=O)N(C)C)COC(=O)[C@@H](O[C@H]4C[C@](C)(O)[C@H](N(C)C)[C@H](C)O4)[C@H]2OC5)c2nc-3cs2)n1)C(N)=O | 4 µg/mL (≈ 2.49 µM) | > 10 mg/kg | 8 µg/mL (≈ 4.98 µM) | 0.125 µg/mL (≈ 0.0777 µM) | – | – | – | –
14 | C=CCOc1cc2c(nc1-c1nc(C(=O)NC(=C)C(N)=O)cs1)-c1csc(n1)[C@@H]1COC(=O)c3c4c5c(cccc5n3OCC=C)COC(=O)[C@@H](O[C@H]3C[C@](C)(O)[C@H](N(C)C)[C@H](C)O3)[C@@H](OC4)[C@H](NC(=O)c3csc(n3)/C(=C(/C)OC)NC(=O)[C@H]([C@@H](C)O)NC(=O)c3csc-2n3)c2nc(cs2)C(=O)N1 | 0.25 µg/mL (≈ 0.165 µM) | > 10 mg/kg | 0.06 µg/mL (≈ 0.0395 µM) | 0.0005 µg/mL (≈ 0.000329 µM) | – | – | – | –
15 | C=C(NC(=O)c1csc(-c2nc3c(cc2O)-c2nc(cs2)C(=O)N[C@@H]([C@@H](C)O)C(=O)N/C(=C(\C)OC)c2nc(cs2)C(=O)N[C@@H]2c4nc(cs4)C(=O)N[C@@H](COC(=O)c4c5c6c(cccc6n4OCOP(=O)(OC(C)(C)C)OC(C)(C)C)COC(=O)[C@@H](O[C@H]4C[C@](C)(O)[C@H](N(C)C)[C@H](C)O4)[C@H]2OC5)c2nc-3cs2)n1)C(N)=O | 0.015 µg/mL (≈ 0.00904 µM) | 3 mg/kg | 0.125 µg/mL (≈ 0.0753 µM) | 0.015 µg/mL (≈ 0.00904 µM) | > 2000 µg/mL | – | – | –
16 | C=C(NC(=O)c1csc(-c2nc3c(cc2O)-c2nc(cs2)C(=O)N[C@@H]([C@@H](C)O)C(=O)N/C(=C(\C)OC)c2nc(cs2)C(=O)N[C@@H]2c4nc(cs4)C(=O)N[C@@H](COC(=O)c4c5c6c(cccc6n4OCCC[N+](C)(C)C)COC(=O)[C@@H](O[C@H]4C[C@](C)(O)[C@H](N(C)C)[C@H](C)O4)[C@H]2OC5)c2nc-3cs2)n1)C(N)=O | 2 µg/mL | > 10 mg/kg | > 128 µg/mL | 0.5 µg/mL | – | – | – | –
17 | C=C(NC(=O)c1csc(-c2nc3c(cc2O)-c2nc(cs2)C(=O)N[C@@H]([C@@H](C)O)C(=O)N/C(=C(\C)OC)c2nc(cs2)C(=O)N[C@@H]2c4nc(cs4)C(=O)N[C@@H](COC(=O)c4c5c6c(cccc6n4OCCn4ccnc4)COC(=O)[C@@H](O[C@H]4C[C@](C)(O)[C@H](N(C)C)[C@H](C)O4)[C@H]2OC5)c2nc-3cs2)n1)C(N)=O | 1 µg/mL (≈ 0.653 µM) | > 10 mg/kg | 0.5 µg/mL (≈ 0.326 µM) | 0.015 µg/mL (≈ 0.00979 µM) | – | – | – | –
18 | C=C(NC(=O)c1csc(-c2nc3c(cc2O)-c2nc(cs2)C(=O)N[C@@H]([C@@H](C)O)C(=O)N/C(=C(\C)OC)c2nc(cs2)C(=O)N[C@@H]2c4nc(cs4)C(=O)N[C@@H](COC(=O)c4c5c6c(cccc6n4OCCCS(=O)(=O)O)COC(=O)[C@@H](O[C@H]4C[C@](C)(O)[C@H](N(C)C)[C@H](C)O4)[C@H]2OC5)c2nc-3cs2)n1)C(N)=O | 0.125 µg/mL (≈ 0.0801 µM) | 4 mg/kg | 0.125 µg/mL (≈ 0.0801 µM) | 0.007 µg/mL (≈ 0.00449 µM) | > 2000 µg/mL | – | – | –
19 | C=C(NC(=O)c1csc(-c2nc3c(cc2O)-c2nc(cs2)C(=O)N[C@@H]([C@@H](C)O)C(=O)N/C(=C(\C)OC)c2nc(cs2)C(=O)N[C@@H]2c4nc(cs4)C(=O)N[C@@H](COC(=O)c4c5c6c(cccc6n4OCCC(=O)O)COC(=O)[C@@H](O[C@H]4C[C@](C)(O)[C@H](N(C)C)[C@H](C)O4)[C@H]2OC5)c2nc-3cs2)n1)C(N)=O | 0.25 µg/mL (≈ 0.166 µM) | 10 mg/kg | 0.125 µg/mL (≈ 0.0828 µM) | 0.03 µg/mL (≈ 0.0199 µM) | ~70 µg/mL (≈ 46.4 µM) | – | – | –
